Measured values: patent US20160310467A1, “ONDANSETRONE TO REVERSAL OF THE SOFT TISSUE ANESTHESIA” (priority 2015, published 2016)

Columns and labels:
[1] = spinal anesthesia with bupivacaine; cited from earlier work
[2] = cited from earlier work
[3] = reversal of the local anesthesia effect by applying ondansetrone to the same soft tissue area; format: in vivo; details: ondansetrone applied to the same area where local anesthesia is applied; dose according to patient and to type and dosage of local anesthetic
Excerpt: Invention is about the reversal of the effect of the local anesthetic applied to the soft tissue, in a short time period by applying ondansetrone, which is a 5-hydroxytriptamine (5-HT3) antagonist, to the same area. And it is also about the removal of the problems encountered by local anesthesia.
Anesthesia implementations can be classified as local anesthesia, regional anesthesia and general anesthesia. Local anesthesia is the temporarily blockage of carrying the painful stimulations by nerve tracks. Only the surgery area is anesthetized with the local anesthesia. […] Local anesthesia effect can last from as few hours up to five hours. During that period, the problems that patient has to face because of being effected by local anesthesia are described in detail in the prior art section. The solution of these problems is reversal of the effect of the local anesthesia by the doctor in a short time after finishing the operation. Because of the effects of the local anesthetics can take hours to be removed by their selves. In the studies of mine about reversal of that local anesthesia effect, ondansetrone, which is a 5-hidroksitriptamin (5-HT3) antagonist, is implemented to the same area according to patient's situation (age, weight, sensitivity etc.) and to type and dosage of local anesthetic were local anesthesia is applied. […]

In the case of `CN1C2CCCC1CC(NC(=O)c1nn(C)c3ccccc13)C2` (stereo not shown) [granisetron], the “reversal of the sensorial block” value [1] is listed as “accelerates the reversal of the sensorial block”.

For `Cc1nccn1CC1CCc2c(c3ccccc3n2C)C1=O` (stereo not shown) [ondansetrone], the “regression of the sensorial block level” value ([2]; subarachnoid anesthesia by lidocaine) is listed as “accelerates the regression of the sensorial block level”, the “effect on sensorial block level” value ([2]; subarachnoid anesthesia by ropivacaine) is listed as “no effect in sensorial block level” and the “reversal of the effect of the local anesthetic” value [3] is listed as “antagonizes the effect of the local anesthetic in a short time (a few minutes)”.
